What was measured:
Type in all cases: cell-based, human
RPS27L mRNA = test: RT-PCR of RPS27L mRNA after drug treatment of HCT116 cells; settings: p53 wild-type HCT116 cells; ADR (1 μM) or 5-FU (375 μM); not in p53 null cells
From the text: FIG. 1A depicts the microarray analysis showing a set of genes whose expression was induced by the DNA damaging agents adriamycin (ADR) and 5-fluorouracil (5-FU) in p53 wild-type HCT116 cells (human colorectal carcinoma cell line containing wild type p53) but not in the p53 null counterpart. In both treatments, RPS27L, together with bona fide p53 targets such as cdkn1a (encodes p21), Pmaid (encodes Noxa) and ccd3 (encodes Puma), was unregulated in a p53-dependent manner. To validate the microarray data, RT-PCR analysis was performed (FIG. 1B).
The human colon carcinoma cell line HCT116 and its p53 knock-out derivate cells were kindly provided by Dr. Bert Vogelstein. HCT116 cells can also be purchased under the ATCC number: CCL 247. The human osteosarcoma cell lines U2OS and Saos-2 can be purchased under the following ATCC numbers: U2OS, ATCC HTB-96; Saos-2, ATCC HTB-85 and SH-SY5Y, ATCC CRL-2266. Cells were grown in DMEM supplemented with 10% fetal bovine serum and penicillin-streptomycin (Invitrogen). Adriamycin, etoposide phosphate (VP16®) and 5-fluorouracil were purchased from Sigma-Aldrich.
All RT-PCR was performed using the Titanium One Step RT-PCR Kit (BD Clontech).

RPS27L protein = test: Western blot of RPS27L protein levels in HCT116 cells; settings: ADR (1 μM), 5-FU (375 μM), nutlin-3 (10 μM)
Method: To investigate whether the p53-induced increase in RPS27L mRNA also gives rise to the increased protein levels, immunoblot analysis of p53 wild-type and p53 null HCT116 cells treated with ADR, 5-FU or nutlin-3, a small molecule MDM2 antagonist that directly activates p53 (Vassilev, L. T., Vu, B. T., et al. (2004) “In vivo activation of the p53 pathway by small-molecule antagonists of MDM2” Science, vol. 303, p. 844-848) was performed. […] To extend this observations to other cell lines and to other p53 stimuli, U2OS (human osteosarcoma cell line) and SH-SY5Y (human neuroblastoma cell line) cells (p53 wild type) as well as Saos-2 cells (human osteosarcoma cell line, p53-deficient) were treated with ADR, etoposide phosphate (VP16®) and 5-FU (FIG. 2B). […] Obviously, 5-FU treatment activates a posttranslational mechanism that causes RPS27L protein downregulation in spite of the increased mRNA expression.
(§1) Cells were harvested and lysed with RIPA buffer (50 mM Tris-HCl, pH7.4, 1 mM EDTA, 150 mM NaCl, 1% Nonidet P-40, 0.5% sodium deoxycholate and proteinase inhibitors). The lysates were clarified by centrifugation at 16,000×g for 15 minutes at 4° C. Protein concentrations were determined with the Bradford Protein Assay Kit (Bio-Rad). 20-50 μg protein samples were separated by SDS-PAGE, transferred onto an Immobilon membrane (Millipore) and blotted with antibodies. Anti-p53 and anti-p21 antibodies were from Santa Cruz; anti-MDM2 and anti-Puma antibodies were from Merck. The rabbit polyconal antibody to RPS27L was raised against a 14 amino acid peptide from human RPS27L (SEQ ID NO: 2: LHPSLEEEKKKHKK).

HCT116 cells [1] = test: Cell cycle and apoptosis analysis by flow cytometry (sub-G1 DNA content)
Method: (§2) Cells cycle analysis was performed by DNA content quantification. The cells were fixed with 70% ethanol and stained with propidium iodide (50 μg/ml) staining. The stained cells were analyzed by FACScalibur (BD Bioscience). For the BrdU incorporation assay and mitochondrial membrane potential detection, the BrdU Flow Kit and JC-1 staining kit (both from BD Bioscience) were used, respectively, following the instruction manual. Stained cells were analyzed by FACScalibur (BD Bioscience) and quantified by using CellQuest software (BD Bioscience).

HCT116 cells [2] = test: JC-1 staining, mitochondrial membrane potential by flow cytometry; settings: control HCT116 cells, ADR treatment
Method: To further define the nature of this cell death response the inventors used another assay, namely flow cytometric detection of cells stained with JC-1. The JC-1-staining identifies cell death events as a result of loss of mitochondria membrane potential (ΔΨm).
as §2

HCT116 cells [3] = test: BrdU incorporation / 7-amino-actinomycin D FACS analysis; settings: for cells with a hyperploid DNA content (>4.v): ADR 24 hours
Method: Given the increased sensitivity to DNA damage upon RPS27L depletion, the inventors next investigated whether loss of RPS27L could impair the DNA damage checkpoint. […] However, parental cells underwent a dramatic decrease in DNA synthesis (from 85% to 11%) 24 hours after ADR treatment, whereas in HCT116 cells lacking RPS27L, this decrease in DNA synthesis was partially rescued (from 86% to 27%) (FIG. 5A).
as §2

[4] = tested on: p53 and its downstream targets p21, puma and MDM2; test: Immunoblot of p53 and its targets in control and RPS27L-depleted HCT116 cells; settings: RPS27L-depleted versus control HCT116 cells
Method: (§3) As RPS27L depletion sensitizes only p53 wild-type cells to DNA damage, the inventors next assessed the effect of RPS27L loss on p53 signaling pathway. The effects of RPS27L depletion on p53 and its downstream targets p21, puma and MDM2 was examined by immunoblot analysis. […] By contrast, p53-dependent activation of Puma and MDM2 were not decreased upon RPS27L loss.
as §1

p21 = test: Immunoblot of p21 in U2OS cells with transient RPS27L knockdown; settings: RPS27L knocked down by transient transfection, ADR (1 μM) 24 hours
Method: as §3, §1

COc1cccc2c1C(=O)c1c(O)c3c(c(O)c1C2=O)C[C@@](O)(C(=O)CO)C[C@@H]3O[C@H]1C[C@H](N)[C@H](O)[C@H](C)O1 [ADR, adriamycin]
RPS27L mRNA (RPS27L mRNA): induced
RPS27L protein level (RPS27L protein): increased RPS27L protein levels
cell cycle and apoptosis response (HCT116 cells [1]; HCT116 p53+/+ and p53−/−, ADR (1 μM) or 5-FU (375 μM) for 48 h): p53-dependent cell cycle arrest
cell death (sub-G1 DNA content) (HCT116 cells [1]; RPS27L depletion in p53 null HCT116 cells, ADR 48 h): did not give rise to the same result
cellular response (HCT116 cells [1]; p53 wild-type HCT116 expressing control shRNA, ADR 48 h): growth arrest response
percentage of cells with lower membrane potential (ΔΨm) (HCT116 cells [2]): 13.5%
DNA synthesis (BrdU, cells in S-phase) (HCT116 cells [3]; HCT116 cells lacking RPS27L, 24 hours after ADR treatment (86% before)): 27%
cells with a hyperploid DNA content (>4.v) (HCT116 cells [3]; RPS27L-depleted HCT116 cells): 30%
cells with a hyperploid DNA content (>4.v) (HCT116 cells [3]; control HCT116 cells): 10.5%
hyperploid population (HCT116 cells [3]; p21-depleted HCT116 cells after ADR treatment): no increased hyperploid population
DNA synthesis (BrdU, cells in S-phase) (HCT116 cells [3]; parental (control) HCT116 cells, 24 hours after ADR treatment (85% before)): 11%
p53-dependent activation of Puma and MDM2 ([4]; ADR (1 μM)): not decreased
effect of RPS27L depletion on ADR-induced p53 activation ([4]; ADR (1 μM) 24 and 48 hours): no significant effect
p21 accumulation in response to ADR ([4]; ADR (1 μM) 24 and 48 hours): significant reduced
p21 protein level (p21): substantial decrease
